From patent publication US6750222B2, “Substituted phenyl derivatives” (Bayer CropScience GmbH, priority 2001, dated 2004)

Key:
[1] = test system: Sinapis alba, Chrysanthemum segetum, Avena sativa, Stellaria media, Echinochloa crus-galli, Lolium multiflorum, Setaria spp., Abutilon theophrasti, Amaranthus …; experiment: Pre-emergence effect on weeds (greenhouse pot test); type: in vivo, monocotyledonous and dicotyledonous weed plants; conditions: application rate of 2 kg and less of active substance per hectare; scored visually after 3 to 4 weeks by comparison with untreated controls
Source text: 1. Pre-Emergence Effect on Weeds
Seeds or rhizome pieces of monocotyledonous and dicotyledonous weed plants were placed in sandy loam soil in cardboard pots and covered with soil. The compounds according to the invention which were formulated in the form of wettable powders or emulsion concentrates were then applied to the surface of the soil cover in the form of aqueous suspensions or emulsions at an application rate of 600 to 800 l of water/ha (converted), in various dosages.
After the treatment, the pots were placed in a greenhouse and kept under good growth conditions for the weeds. After the test plants had emerged, the damage to the plants or the negative effect on the emergence was scored visually after a test period of 3 to 4 weeks by comparison with untreated controls. As shown by the test results, compounds according to the invention have good herbicidal pre-emergence activity against a broad spectrum of weed grasses and broad-leafed weeds.

[2] = test system: Sinapis alba, Echinochloa crus-galli, Lolium multiflorum, Chrysanthemum segetum, Avena sativa, Stellaria media, Setaria spp., Abutilon theophrasti, Amaranthus …; experiment: Post-emergence effect on weeds (greenhouse pot test); type: in vivo, monocotyledonous and dicotyledonous weeds; conditions: application rate of 2 kg and less of active substance per hectare; treated at three-leaf stage; scored visually after about 3 to 4 weeks by comparison with untreated controls
Procedure: 2. Post-Emergence Effect on Weeds
Seeds or rhizome pieces of monocotyledonous and dicotyledonous weeds were placed in sandy loam soil in plastic pots, covered with soil and grown in a greenhouse under good growth conditions. Three weeks after sowing, the test plants were treated at the three-leaf stage. The compounds according to the invention which were formulated as wettable powders or emulsion concentrates were sprayed, at various dosages, onto the green parts of the plants at an application rate of 600 to 800 l of water/ha (converted). After the test plants had remained in the greenhouse for about 3 to 4 weeks under ideal growth conditions, the effect of the preparations was scored visually by comparison with untreated controls. The agents according to the invention also have good herbicidal activity post-emergence against a broad spectrum of economically important weed grasses and broad-leafed weeds.

Q: For `Cn1nc(C(F)(F)F)cc1Oc1cc(C#N)cc(Oc2cc(C(F)(F)F)nn2C)c1` [Chemical Example 1, 3,5-Bis-(1-methyl-3-trifluoromethylpyrazol-5-yloxy)benzonitrile], which melting point is on record?
A: The melting point was 139 °C.

Q: With `Cn1nc(C(F)(F)F)cc1Oc1cc(F)cc(C#N)c1` [Chemical Example 2, 3-Fluoro-5-(1-methyl-3-trifluoromethylpyrazol-5-yloxy)benzonitrile] as the molecule, how does the melting point read?
A: The melting point was 84 °C.

Q: With `Cn1nc(C(F)(F)F)cc1Oc1cc(C#N)cc(-n2ccc(C(F)(F)F)n2)c1` [Chemical Example 5, 3-(1-Methyl-3-trifluoromethylpyrazol-5-yloxy)-5-(3-trifluoromethylpyrazol-1-yl)benzonitrile] as the molecule, how does the melting point read?
A: The melting point was 116 to 117 °C.

Q: Which “herbicidal activity against harmful plants pre-emergence” value [1] does the source give for `Cn1nc(C(F)(F)F)cc1Oc1cc(C#N)cc(Oc2cccc(C(F)(F)F)c2)c1` [Example 62a] here?
A: Its value is “very good herbicidal activity”.

Q: And the “herbicidal activity against harmful plants post-emergence” value [2]?
A: Its value is “very good herbicidal activity”.

Q: What does the source list for `N#Cc1cc(Oc2cccc(C(F)(F)F)c2)cc(Oc2cccc(C(F)(F)F)c2)c1` [Example 62b]?
A: herbicidal activity against harmful plants pre-emergence [1]: very good herbicidal activity; herbicidal activity against harmful plants post-emergence [2]: very good herbicidal activity

Q: With `N#Cc1cc(Oc2ccnc(C(F)(F)F)c2)cc(Oc2ccnc(C(F)(F)F)c2)c1` [Example 73d] as the molecule, how does the “herbicidal activity against harmful plants pre-emergence” value [1] read?
A: Its value is “very good herbicidal activity”.

Q: And the “herbicidal activity against harmful plants post-emergence” value [2]?
A: The value was “very good herbicidal activity”.

Q: What does the source list for `N#Cc1cc(Oc2csc(C(F)(F)F)c2)cc(Oc2csc(C(F)(F)F)c2)c1` [Example 74c]?
A: herbicidal activity against harmful plants pre-emergence [1]: very good herbicidal activity; herbicidal activity against harmful plants post-emergence [2]: very good herbicidal activity

Q: Which “herbicidal activity against harmful plants pre-emergence” value [1] does the source give for `Cn1nc(C(F)(F)F)cc1Oc1cc(C#N)cc(Oc2cc(C(F)(F)F)n(C)n2)c1` [Example 75a] here?
A: Its value is “very good herbicidal activity”.

Q: What about the “herbicidal activity against harmful plants post-emergence” value [2] of the same molecule?
A: The value was “very good herbicidal activity”.

Q: What does the source list for `Cn1nc(C(F)(F)F)cc1Oc1cc(C#N)cc(Oc2cc(C(F)(F)F)nn2C)c1` [Example 76a]?
A: herbicidal activity against harmful plants pre-emergence [1]: very good herbicidal activity; herbicidal activity against harmful plants post-emergence [2]: very good herbicidal activity

Q: Which “herbicidal activity against harmful plants pre-emergence” value [1] does the source give for `Cn1nc(C(F)(F)F)cc1Oc1cc(Oc2cc(C(F)(F)F)nn2C)cc(C(N)=O)c1` [Example 77a] here?
A: The value was “very good herbicidal activity”.

Q: And the “herbicidal activity against harmful plants post-emergence” value [2]?
A: Its value is “very good herbicidal activity”.

Q: With `Cn1nc(C(F)(F)F)cc1Oc1cc(Oc2cc(C(F)(F)F)nn2C)cc([N+](=O)[O-])c1` [Example 397a] as the molecule, how does the “herbicidal activity against harmful plants pre-emergence” value [1] read?
A: The value was “very good herbicidal activity”.

Q: What about the “herbicidal activity against harmful plants post-emergence” value [2] of the same molecule?
A: Its value is “very good herbicidal activity”.

Q: Which “herbicidal activity against harmful plants pre-emergence” value [1] does the source give for `Cn1nc(C(F)(F)F)cc1Oc1cc(F)cc(C#N)c1` [Example 1136a] here?
A: Its value is “very good herbicidal activity”.

Q: What about the “herbicidal activity against harmful plants post-emergence” value [2] of the same molecule?
A: Its value is “very good herbicidal activity”.

Q: Which results are given for `N#Cc1cc(F)cc(Oc2csc(C(F)(F)F)c2)c1` [Example 1136c]?
A: herbicidal activity against harmful plants pre-emergence [1]: very good herbicidal activity; herbicidal activity against harmful plants post-emergence [2]: very good herbicidal activity

Q: With `Cn1nc(C(F)(F)F)cc1Oc1cc(C#N)cc(C#N)c1` [Example 1140a] as the molecule, how does the “herbicidal activity against harmful plants pre-emergence” value [1] read?
A: Its value is “very good herbicidal activity”.

Q: And the “herbicidal activity against harmful plants post-emergence” value [2]?
A: The value was “very good herbicidal activity”.

Q: Which “herbicidal activity against harmful plants pre-emergence” value [1] does the source give for `N#Cc1cc(C#N)cc(Oc2csc(C(F)(F)F)c2)c1` [Example 1140c] here?
A: Its value is “very good herbicidal activity”.

Q: What about the “herbicidal activity against harmful plants post-emergence” value [2] of the same molecule?
A: Its value is “very good herbicidal activity”.

Q: What does the source list for `N#Cc1cc(C#N)cc(Oc2ccnc(C(F)(F)F)c2)c1` [Example 1140d]?
A: herbicidal activity against harmful plants pre-emergence [1]: very good herbicidal activity; herbicidal activity against harmful plants post-emergence [2]: very good herbicidal activity

Q: What does the source list for `Cn1nc(C(F)(F)F)cc1Oc1cc(F)cc([N+](=O)[O-])c1` [Example 1156a]?
A: herbicidal activity against harmful plants pre-emergence [1]: very good herbicidal activity; herbicidal activity against harmful plants post-emergence [2]: very good herbicidal activity

Q: Which results are given for `Cn1nc(C(F)(F)F)cc1Oc1cc(C#N)cc(-n2ccc(C(F)(F)F)n2)c1` [Example 1161a]?
A: herbicidal activity against harmful plants pre-emergence [1]: very good herbicidal activity; herbicidal activity against harmful plants post-emergence [2]: very good herbicidal activity

Q: What does the source list for `CC(C)OCCOc1cc(C#N)cc(Oc2cc(C(F)(F)F)nn2C)c1` [Example 1169a]?
A: herbicidal activity against harmful plants pre-emergence [1]: very good herbicidal activity; herbicidal activity against harmful plants post-emergence [2]: very good herbicidal activity

Q: With `CCOCCOCCOc1cc(C#N)cc(Oc2cc(C(F)(F)F)nn2C)c1` [Example 1171a] as the molecule, how does the “herbicidal activity against harmful plants pre-emergence” value [1] read?
A: The value was “very good herbicidal activity”.

Q: And the “herbicidal activity against harmful plants post-emergence” value [2]?
A: Its value is “very good herbicidal activity”.

Q: For `COCCCOc1cc(C#N)cc(Oc2cc(C(F)(F)F)nn2C)c1` [Example 1177a], which “herbicidal activity against harmful plants pre-emergence” value [1] is on record?
A: The value was “very good herbicidal activity”.

Q: And the “herbicidal activity against harmful plants post-emergence” value [2]?
A: Its value is “very good herbicidal activity”.

Q: Which results are given for `Cn1nc(C(F)(F)F)cc1Oc1cc(C#N)cc(OCC2CCCO2)c1` (stereo not shown) [Example 1180a]?
A: herbicidal activity against harmful plants pre-emergence [1]: very good herbicidal activity; herbicidal activity against harmful plants post-emergence [2]: very good herbicidal activity

Q: Which “herbicidal activity against harmful plants pre-emergence” value [1] does the source give for `Cn1nc(C(F)(F)F)cc1Oc1cc(C#N)cc(OCC2COC(C)(C)O2)c1` (stereo not shown) [Example 1182a] here?
A: Its value is “very good herbicidal activity”.

Q: And the “herbicidal activity against harmful plants post-emergence” value [2]?
A: The value was “very good herbicidal activity”.
